Reference: patent publication US10842779B2, “Heterocyclic compounds and their use in preventing or treating bacterial infections” (priority 2015, dated 2020)
pIC50: −log10 of the molar value. Like-named read-outs stand apart in the source and are kept apart here.

Columns and labels:
TEM-1 = target: T1, TEM-1 (Escherichia coli, UniProt P62593); assay: β-Lactamase inhibitory activity, nitrocefin hydrolysis; type: biochemical; conditions: class (A); 30 min pre-incubation
T1 construct: made in house; host or cells: E. coli

SHV-1 = target: T2, SHV-1 (Klebsiella pneumoniae, UniProt P0AD64); assay: as above; type: biochemical
T2 construct: made in house; host or cells: E. coli

CTX-M-15 = target: T3, CTX-M-15 (Escherichia coli, UniProt Q9EXV5); assay: as above; type: biochemical; conditions: class (A); 30 min pre-incubation
T3 construct: made in house; host or cells: E. coli

KPC-2 = target: T4, KPC-2 (Klebsiella pneumoniae, UniProt Q9F663); assay: as above; type: biochemical; conditions: class (A); 30 min pre-incubation
T4 construct: made in house; host or cells: E. coli

AmpC (P99) = AmpC (P99) (Enterobacter cloacae, UniProt P05364); assay: biochemical
Description: (§1) Method 1: β-Lactamase Inhibitory Activity, Determination of IC50 (Table 1)
(§2) Enzyme activity was monitored by spectrophotometric measurement of nitrocefin (NCF-TOKU-E, N005) hydrolysis at 485 nm, at room temperature and in assay buffer A: 100 mM Phosphate pH7, 2% glycerol and 0.1 mg/mL Bovine serum albumin (Sigma, B4287). Enzymes were cloned in E. coli expression vector, expressed and purified in house using classical procedures. To a transparent polystyrene plate (Corning, 3628) were added in each well 5 μL DMSO or inhibitor dilutions in DMSO and 80 μL enzyme in buffer A. Plates were immediately read at 485 nm in a microplate spectrophotometer (BioTek, PowerWave HT) to enable background subtraction. After 30 min of pre-incubation at room temperature, 15 μL of NCF (200 μM final) were finally added in each well. Final enzyme concentrations were 0.1 nM (TEM-1), 0.075 nM (SHV-1), 0.4 nM (CTX-M-15), 1 nM (KPC-2), 0.2 nM (P99 AmpC), 0.2 nM (CMY-37), 0.4 nM (AmpC P. aeruginosa), 0.2 nM (OXA-1), 1.2 nM (OXA-11), 0.4 nM (OXA-15) and 0.3 nM (OXA-48). After 20 min incubation at room temperature, plates were once again read at 485 nm. Enzyme activity was obtained by subtracting the final signal by the background, and was converted to enzyme inhibition using non inhibited wells. IC50 curves were fitted to a classical Langmuir equilibrium model with Hill slope using XLFIT (IDBS).

AmpC (PAE) = AmpC (PAE) (Pseudomonas aeruginosa, UniProt P24735); assay: biochemical
Description: as §1, §2

[1] = target: CMY-37 (Citrobacter freundii); assay: β-Lactamase inhibitory activity, nitrocefin hydrolysis; type: biochemical
OXA-1 = target: T5, OXA-1 (Escherichia coli, UniProt P13661); assay: as above; type: biochemical; conditions: class (D); 30 min pre-incubation
T5 construct: made in house; host or cells: E. coli

OXA-11 = target: T6, OXA-11 (Pseudomonas aeruginosa, UniProt Q06778); assay: as above; type: biochemical
T6 construct: made in house; host or cells: E. coli

OXA-15 = target: T7, OXA-15 (Pseudomonas aeruginosa, UniProt Q51574); assay: as above; type: biochemical
T7 construct: made in house; host or cells: E. coli

OXA-48 = target: T8, OXA-48 (Klebsiella pneumoniae, UniProt Q6XEC0); assay: as above; type: biochemical; conditions: class (D); 30 min pre-incubation
T8 construct: made in house; host or cells: E. coli

E. coli = assay: MIC of compounds alone, broth microdilution; type: cell-based; conditions: Escherichia coli, ECO 190317, beta-lactamases TEM-1, SHV-12, CTX-M-15 OXA-1, read-out: MIC
Description: (§3) Method 2: MIC of Compounds and Synergy with Ceftazidime Against Bacterial Isolates (Table 2 and 3)
(§4) Compounds of the present invention were assessed against genotyped bacterial strains alone or in combination with the β-lactam ceftazidime. In the assays, MICs of said compounds, or of ceftazidime at fixed concentrations of said compounds were determined by the broth microdilution method according to the Clinical Laboratory Standards Institute (CLSI—M7-A7). Briefly, compounds alone according to the invention were prepared in DMSO and spotted (2 μL each) on sterile polystyrene plates (Corning, 3788). Compounds and ceftazidime dilutions were prepared in DMSO and spotted (1 μL each) on sterile polystyrene plates (Corning, 3788). Log phase bacterial suspensions were adjusted to a final density of 5×10^5 cfu/mL in cation-adjusted Mueller-Hinton broth (Beckton-Dickinson) and added to each well (98 μL). Microplates were incubated for 16-20 h at 35° C. in ambient air. The MIC of the compounds was defined as the lowest concentration of said compounds that prevented bacterial growth as read by visual inspection. The MIC of ceftazidime at each compound concentration was defined as the lowest concentration of ceftazidime that prevented bacterial growth as read by visual inspection.

E. cloacae [2] = assay: MIC of compounds alone, broth microdilution; type: cell-based; conditions: Enterobacter cloacae, ECL P99, beta-lactamases AmpC, read-out: MIC
Description: as §3, §4

K. pneumoniae [3] = assay: MIC of compounds alone, broth microdilution; type: cell-based; conditions: Klebsiella pneumoniae, alone; KPN 6299; beta-lactamases TEM-1, SHV-11 OXA-163; read-out: MIC
Description: as §3, §4

E. cloacae [4] = assay: Synergy with ceftazidime: MIC of ceftazidime at fixed concentration of compound; type: cell-based; conditions: Enterobacter cloacae, ECL P99; beta-lactamases AmpC; read-out: MIC of CAZ + compound (4 μg/mL)
Description: as §3, §4

K. pneumoniae [5] = assay: as above; type: cell-based; conditions: Klebsiella pneumoniae, read-out: MIC of CAZ + compound (4 μg/mL), KPN 6299; beta-lactamases TEM-1, SHV-11 OXA-163
Description: as §3, §4

SMILES	pIC50 (TEM-1)	pIC50 (SHV-1)	pIC50 (CTX-M-15)	pIC50 (KPC-2)	pIC50 (AmpC (P99))	pIC50 (AmpC (PAE))	pIC50 [1]	pIC50 (OXA-1)	pIC50 (OXA-11)	pIC50 (OXA-15)	pIC50 (OXA-48)	MIC (E. coli) [µg/mL]	pIC50 ([1]; class (C), 30 min pre-incubation, read-out: IC50 β-lactamase CMY-37)	MIC (E. cloacae [2]) [µg/mL]	MIC (K. pneumoniae [3]) [µg/mL]	MIC (E. cloacae [4]) [µg/mL]	MIC (K. pneumoniae [5]) [µg/mL]
O=C(O)C(F)(F)F.O=C1N2C[C@H](c3scnc3[C@H]2c2nnc[nH]2)N1OS(=O)(=O)[O-].[Na+] (relative stereo) [Example 3, Sodium and 2,2,2-trifluoroacetate [trans-7-(4H-1,2,4-triazol-4-ium-3-yl)-9-oxo-3-thia-5,8,10-triaza-tricyclo[6.2.1.0^2,6]undeca-2(6),4-dien-10-yl]sulfate]	7.34	6.85	7.55	6.34	7.89	6.24	7.52	6.00	6.72	5.96	8.17	16					
O=C1N2C[C@H](c3scnc3[C@H]2c2ncno2)N1OS(=O)(=O)[O-].[Na+] (relative stereo) [Example 4, Sodium [trans-7-(1,2,4-oxadiazol-5-yl)-9-oxo-3-thia-5,8,10-triaza-tricyclo[6.2.1.0^2,6]undeca-2(6),4-dien-10-yl]sulfate]	8.96	8.85	9.19	8.49	8.96	7.19		6.77	8.19	7.72	9.47	16	8.47	32	> 32	2	2
